Test results reported in patent US20250065090A1, “DEVICE AND METHOD FOR DELIVERY OF A HEARING DRUG FORMULATION” (Corti Therapeutics Pte. Ltd., priority 2023, published 2025).
Read-outs that look alike come from different tables or passages of the source.

Columns and labels:
[1] = system: patients receiving cisplatin; details: cited from earlier work
[2] = Calculated osmolarity of STS formulation; format: physicochemical; details: aqueous solution of sodium thiosulfate 0.1M to 0.5M
[3] = system: cisplatin induced hearing loss; details: intratympanic administration, multiple clinical trials; cited from earlier work
[4] = system: cisplatin induced hearing loss; details: intratympanic injection, animal studies; cited from earlier work
[5] = system: cisplatin induced hearing loss; details: systemic administration, humans; cited from earlier work
[6] = system: cisplatin hearing loss model
From the text: A solution of freshly prepared sodium thiosulfate solution was loaded in a Hamilton syringe with 26 G needle.

[7] = after STS local administration
Method: The time-concentration data was used for calculations. The area under the concentration-time curve (AUC) was determined by the trapezoidal rule. Terminal elimination half-lives of sodium thiosulfate (STS) in perilymph and plasma were determined by use of WIN NONLIN version 2.0 SCI.
30 guinea pigs (250-350 g) without sign of otitis media stayed for ˜3 days acclimation, and ready for PK study. Two anesthesia methods (Zoletil+Xylazine with head up 30 min) and Isoflurane (animal wake up immediately post-injection)] were used. 15 animals for each group.
The subjection guinea pig was anesthetized with zolazepam hydrochloride (Zoletil) and Xylazine or isoflurane inhalation. A solution of freshly prepared sodium thiosulfate solution was loaded in a Hamilton syringe with 26 G needle. The needle was carefully inserted into the left middle ear cavity via the tympanic membrane aiming to cochlear round window. ˜50 μL of dosing solution was injected. The animal was positioned head up for ˜30 min prior to waking up in Zoletil and Xylazine or wake up immediately in isoflurane inhalation.
In C-subgroup of each group, animal blood was systemically drawn (˜100 uL) via bilateral saphenous vein at the multiple time points. Put the collection blood in heparinized tube and stay ˜20 min. ˜50 μL of plasma was collected in microtube and put in −80° C. for future analysis.
STS concentrations were quantitatively analyzed by HPLC using an LC-20AT with a SPD-M20A UV-Vis detector (Shimadzu, Kyoto, Japan) and a LiChrospher RP-select B LiChroCART 250-4 […] column (EMD Millipore Corp, Darmstadt, Germany). All samples were prepared using a method similar to that described by Togawa et al. (1992).

Structure (SMILES) | cure rate ([1]; cisplatin based chemotherapy, testicular cancer) | patients developing hearing loss ([1]; human, in vivo) | calculated osmolarity [2] | hearing protection [3] | effect on cisplatin induced hearing loss [4] | effect on cisplatin induced hearing loss [5] | hearing protection ([6]; 0.2M concentration, simple aqueous formulation without gelling agent, guinea pig cisplatin hearing loss model) | protection of the sodium thiosulfate treated ears (ABR) ([6]; all groups (2.5%, 5% and 10% sodium thiosulfate), TT or IT injection ~30 min before cisplatin 10 mg/kg iv, ABR 7 days after infusion, treated vs untreated contralateral ear) | Tmax of systemic thiosulfate [7] | systemic thiosulfate concentration [7] | time until systemic thiosulfate concentration recovered to normal [7]
N.N.[Cl][Pt][Cl] [cisplatin, Cisplatin] | > 90% | 60%-80% |  |  |  |  |  |  |  |  | 
O=S([O-])([O-])=S.[Na+].[Na+] [sodium thiosulfate] |  |  | < 1500 mOsm/L | no meaningful hearing protection | prevented the cisplatin induced hearing loss | mitigate cisplatin induced hearing loss | full hearing protection | nearly completed protection | approximately 30 min | increased | around 1 hour
